Measurements as given in US8183383B2, “Protein tyrosine phosphatase 1B inhibitor, preparation methods and uses thereof” (Shanghai Institute of Materia Medica, Chinese Academy of …, priority 2007, dated 2012).
Like-named read-outs stand apart in the source and are kept apart here.

What was measured:
hPTP1B [1] = molecular target: T1, hPTP1B (Homo sapiens, UniProt P18031); conditions: positive control; literature reference Seto et al. J. Med. Chem. 2002; cited from earlier work
T1 construct: The catalytic structural domain of hPTP1B was expressed in E-coli system by a molecular biology protocol; made in house; host or cells: E. coli
T1 sequence (P18031 3-277 limits assumed): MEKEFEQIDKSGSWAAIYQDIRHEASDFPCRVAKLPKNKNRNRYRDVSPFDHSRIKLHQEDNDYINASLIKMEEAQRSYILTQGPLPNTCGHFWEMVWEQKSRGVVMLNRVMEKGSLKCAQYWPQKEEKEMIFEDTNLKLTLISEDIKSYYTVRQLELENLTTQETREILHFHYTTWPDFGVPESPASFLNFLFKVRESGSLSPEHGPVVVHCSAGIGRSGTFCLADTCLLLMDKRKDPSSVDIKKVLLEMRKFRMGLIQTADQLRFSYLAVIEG

hPTP1B [2] = molecular target: T1, hPTP1B; assay: PTP1B inhibition test (pNPP hydrolysis, absorption at 410 nm); format: biochemical; conditions: recombinant hPTP1B catalytic domain 40 nM, 2 mM pNPP, pH 7.0, 2% DMSO; read-out: IC50(μM), inhibitory activity of the test compounds against PTP1B
Text: 1) Test principle: The catalytic structural domain of hPTP1B was expressed in E-coli system by a molecular biology protocol. The purified hPTP1B recombinant protein can hydrolyze the phosphoester linkage of the pNPP substrate to obtain a product which has a strong light absorption at 410 nm. Therefore, the variation of the enzyme activity and the inhibitory activity of a compound against the enzyme can be observed by directly monitoring the changes in the light absorption at 410 nm. A typical activity assay system is as follows: 50 mM Mops, PH 7.0, 1 mM EDTA, 2 mM DTT, 2 mM PNPP, 2% DMSO, 40 nM hPTP1B.
2) Measuring Index: The light absorption was dynamically measured at 410 nm for 3 min. The slope of the first-order reaction of the dynamic curve thereof was considered as the activity index of the enzymes.
3) Measurement: • 1. 1 mg sample was dissolved in 200 μL DMSO. To each wall of the A2-H11 of a 96-wells polypropylene plate, 20 μL of the solution was added, followed by addition of 80 μL DMSO. The plate was used as mother plate. • 2. To each corresponding wall of a 96-wells polypropylene plate, 2 μL of sample was added with a Biomek 2000 automation workstation. The plate was used as daughter plate for screening. • 3. To each wall of A1-D1 and E12-H12, 2 μL, DMSO was added. These walls were regarded as 100% of enzyme activity for control. • 4. To each wall of A12-D12 and E1-H1, 2 μL positive control with different concentrations (four concentrations prepared by double-fold dilution from […]) was added respectively. • 5. To each wall of A1-H12, 88 μL Assay mix was added respectively. • 6. To each wall of A1-H12, 10 μL hPTP1B was added respectively. • 7. The light absorption was measured at 410 nm for 3 min on a SpectraMAX 340 spectrometer. • 8. Exporting the output into a TXT file, and opening the file with Excel. The average of the Vmax values of A1-D1 and E12-H12 was considered as 100% of enzyme activity.
4) Results: The screening results were the % inhibitory rate against the enzyme when the compound concentration was 20 μg/mL. 1050 value was calculated according to a conventional screening when the inhibitory rate exceeded 50%. The […] value of the positive control, 4-[4-(4-oxalyl-phenoxymethyl)-benzyloxy]-phenyl-oxo-acetic acid, is 5.4 μM [Christopher T. Seto, et al. J. Med. Chem., 2002, 45, 3946-3952].

SMILES	IC50 (hPTP1B [2])	IC50 (hPTP1B [1])
O=C(O)C(=O)c1ccc(OCc2ccc(COc3ccc(C(=O)C(=O)O)cc3)cc2)cc1 [4-[4-(4-oxalyl-phenoxymethyl)-benzyloxy]-phenyl-oxo-acetic acid]		5.4 µM
CCOC(=O)/C(C)=C\C(C)=C\c1csc([C@H](Cc2ccc(OCc3ccccc3)cc2)NC(=O)C(=O)C2CCC2)n1 [WY572]	8.52 µM	
CCOC(=O)/C(C)=C\C(C)=C\c1csc([C@H](Cc2ccc(O)c(Cc3ccccc3)c2)NC(=O)C2CCCCC2)n1 [WY572t]	4.47 µM	
CCOC(=O)/C(C)=C\C(C)=C\c1csc([C@H](Cc2ccc(OCc3ccsc3)cc2)NC(=O)C2CCCCC2)n1 [WY578h]	12 µM	
CCOC(=O)/C(C)=C\C(C)=C\c1csc([C@H](Cc2ccc(OCc3ccccc3)cc2)NC(=O)Cc2ccccc2)n1 [WY580s]	23.1 µM	
CCOC(=O)/C(C)=C\C(C)=C\c1csc([C@H](Cc2ccc(OCc3ccccc3)cc2)NC(=O)C(=O)c2ccc[nH]2)n1 [WY583]	> 35 µM	
CCOC(=O)/C(C)=C\C(C)=C\c1csc([C@H](Cc2ccc(OCc3ccccc3)cc2)NC(=O)c2ccc(F)cc2)n1 [WY584s]	> 35 µM	
CCOC(=O)/C(C)=C\C(C)=C\c1csc([C@H](Cc2ccc(OCc3ccccc3)cc2)NC(=O)C(=O)C2CCCC2)n1 [WY586]	11 µM	
CCOC(=O)/C(C)=C\C(C)=C\c1csc([C@H](Cc2ccc(OCc3ccccc3)cc2)NC(=O)C2CCN(C)CC2)n1 [WY587s]	> 35 µM	
CCOC(=O)/C(C)=C\C(C)=C\c1csc([C@H](Cc2ccc(OCc3ccccc3)cc2)NC(=O)C(=O)C2CCCO2)n1 (some centres unmarked) [WY588]	10.4 µM	
CCOC(=O)/C(C)=C\C(C)=C\c1csc([C@H](Cc2ccc(OCc3ccccc3F)cc2)NC(=O)C2CCCCC2)n1 [WY592h2]	31.8 µM	
CCOC(=O)/C(C)=C\C(C)=C\c1csc([C@H](Cc2ccc(OCc3ccccc3)cc2)NC(=O)C(O)C2CCCCC2)n1 (some centres unmarked) [WY602-2]	13.5 µM	
CCOC(=O)/C(C)=C\C(C)=C\c1csc([C@H](Cc2ccc(OCc3ccc(OC)cc3)cc2)NC(=O)C2CCCCC2)n1 [WY602h]	25.6 µM	
CCOC(=O)/C(C)=C\C(C)=C\c1csc([C@H](Cc2ccc(OCc3ccccc3)cc2)NC(=O)N2CCC(C(=O)O)CC2)n1 [WY617a]	6.47 µM	
CCOC(=O)/C(C)=C\C(C)=C\c1csc([C@H](Cc2ccc(OCc3ccc4ccccc4c3)cc2)NC(=O)C2CCCCC2)n1 [WY622h]	> 35 µM	
CCOC(=O)/C(C)=C\C(C)=C\c1csc([C@H](Cc2ccc(OCc3ccccc3)cc2)NC(=O)c2cc3ccccc3s2)n1 [WY622s]	25.6 µM	
CCOC(=O)/C(C)=C\C(C)=C\c1nc([C@@H](Cc2ccc(OCc3ccccc3)cc2)NC(=O)C2CCCCC2)sc1CC(C)C [WY628z2]	10.5 µM	
CCOC(=O)/C(C)=C\C(C)=C\c1csc([C@H](Cc2ccc(OCc3ccccc3)cc2)NC(=O)C(=O)COCc2ccccc2)n1 [WY638]	4.1 µM	
CCOC(=O)/C(C)=C\C(C)=C\c1csc([C@H](Cc2ccc(OCc3ccccc3)cc2)NC(=O)N2CCC(C(=O)OCC)CC2)n1 [WY645s]	10.5 µM	
CCOC(=O)/C(C)=C\C(C)=C\c1nc([C@H](Cc2ccc(OCc3ccccc3)cc2)NC(=O)C2CCCCC2)sc1-c1ccccc1 [WY648z]	3.3 µM	
CCOC(=O)/C(C)=C\C(C)=C\c1csc([C@H](Cc2ccc(OCc3ccccc3)cc2)NC(=O)N[C@@H](Cc2ccc(OCc3ccccc3)cc2)c2nc(/C=C(C)/C=C(/C)C(=O)OCC)cs2)n1 [WY951]	6.29 µM	

Now from value to compound, other results behind:

IC50 (hPTP1B [2])	SMILES	IC50 (hPTP1B [1])
6.29 µM	CCOC(=O)/C(C)=C\C(C)=C\c1csc([C@H](Cc2ccc(OCc3ccccc3)cc2)NC(=O)C2CCCCC2)n1 [WY572s]	
> 40 µM	CCOC(=O)/C(C)=C\C(C)=C\c1csc([C@H](Cc2ccc(OCc3ccncc3)cc2)NC(=O)C2CCCCC2)n1 [WY573h4]	
> 35 µM	CCOC(=O)/C(C)=C\C(C)=C\c1csc([C@H](Cc2ccc(OCc3ccccn3)cc2)NC(=O)C2CCCCC2)n1 [WY573h]	
8.58 µM	CCCCC(=O)C(=O)N[C@@H](Cc1ccc(OCc2ccccc2)cc1)c1nc(/C=C(C)/C=C(/C)C(=O)OCC)cs1 [WY574]	
> 35 µM	CCOC(=O)/C(C)=C\C(C)=C\c1csc([C@H](Cc2ccc(OC(C)C(=O)OCC)cc2)NC(=O)C2CCCCC2)n1 (some centres unmarked) [WY582h]	
> 35 µM	COC(=O)/C(C)=C\C(C)=C\c1csc([C@H](Cc2ccc(OCc3ccccc3)cc2)NC(=O)C(O)c2ccccc2)n1 (some centres unmarked) [WY584]	
8.44 µM	CCOC(=O)/C(C)=C\C(C)=C\c1csc([C@H](Cc2ccc(OCc3ccccc3)cc2)NC(=O)C2CCCCC2=O)n1 (some centres unmarked) [WY586d]	
> 35 µM	CCOC(=O)/C(C)=C\C(C)=C\c1csc([C@H](Cc2ccc(OCCc3ccccc3)cc2)NC(=O)C2CCCCC2)n1 [WY586h]	
4.86 µM	CCOC(=O)/C(C)=C\C(C)=C\c1nc([C@H](Cc2ccc(OCc3ccccc3)cc2)NC(=O)C2CCCCC2)sc1C [WY586z]	
24.1 µM	CCOC(=O)/C(C)=C\C(C)=C\c1csc([C@H](Cc2ccc(OCc3cccc(F)c3)cc2)NC(=O)C2CCCCC2)n1 [WY590h3]	
25.6 µM	CCOC(=O)/C(C)=C\C(C)=C\c1csc([C@H](Cc2ccc(OCc3ccc(F)cc3)cc2)NC(=O)C2CCCCC2)n1 [WY590h]	
6.92 µM	CCOC(=O)/C(C)=C\C(C)=C\c1csc([C@H](Cc2ccc(OCc3ccccc3)cc2)NC(=O)C(=O)c2ccccc2)n1 [WY594]	
44.8 µM	CCOC(=O)/C(C)=C\C(C)=C\c1csc([C@H](Cc2ccc(OCc3ccccc3)cc2)NC(=O)c2ccc(OC)cc2)n1 [WY596s]	
> 35 µM	CCOC(=O)/C(C)=C\C(C)=C\c1csc([C@H](Cc2ccc(OCc3ccc(C#N)cc3)cc2)NC(=O)C2CCCCC2)n1 [WY597h]	
3.44 µM	CCOC(=O)/C(C)=C\C(C)=C\c1csc([C@H](Cc2ccc(OCc3ccccc3)cc2)NC(=O)C(=O)C2CCCCC2)n1 [WY600]	
10.9 µM	CCOC(=O)/C(C)=C\C(C)=C\c1csc([C@H](Cc2ccc(OCc3ccccc3)cc2)NC(=O)C(=O)c2cccs2)n1 [WY600t]	
9.42 µM	CCOC(=O)/C(C)=C\C(C)=C\c1csc([C@H](Cc2ccc(OCc3ccccc3)cc2)NC(=O)COCc2ccccc2)n1 [WY610s]	
5.13 µM	CCOC(=O)/C(C)=C\C(C)=C\c1csc([C@H](Cc2ccc(OCc3ccccc3)cc2)NC(=O)C(=O)c2ccc(F)cc2)n1 [WY612]	
4 µM	C/C(=C/C(C)=C/c1nc([C@H](Cc2ccc(OCc3ccccc3)cc2)NC(=O)C2CCCCC2)sc1-c1ccccc1)C(=O)O [WY620a]	
> 35 µM	CCOC(=O)/C(C)=C\C(C)=C\c1csc([C@H](Cc2ccc(Oc3ccc([N+](=O)[O-])cc3F)cc2)NC(=O)C2CCCCC2)n1 [WY621h]	
6.68 µM	CCOC(=O)/C(C)=C\C(C)=C\c1nc([C@H](Cc2ccc(OCc3ccccc3)cc2)NC(=O)C2CCCCC2)sc1CC(C)C [WY628z]	
3.97 µM	C/C(=C/C(C)=C/c1nc([C@H](Cc2ccc(OCc3ccccc3)cc2)NC(=O)CC2CCCCC2)sc1-c1ccccc1)C(=O)O [WY634a]	
9.98 µM	CCOC(=O)/C(C)=C\C(C)=C\c1csc([C@H](Cc2ccc(OCc3ccccc3)cc2)NC(=O)C(OCc2ccccc2)C(C)C)n1 (some centres unmarked) [WY652s]	
